The target of experiment [1] is CLK3 (Homo sapiens, UniProt P49761). Description: CLK3 kinase activity assay (Z-lyte, Ser/Thr 18 peptide).
Experiment [2] concerns the target T1, CLK2 (Homo sapiens, UniProt P49760).
T1 construct: purchased Thermo Fisher (Life Technologies), Z'-LYTE Kinase Assay Kits
Briefly: CLK2 kinase activity assay (Z-lyte, Ser/Thr 6 peptide). Format: biochemical. Here is the method: All reactions were performed in duplicate.

Experiment [3] has as its system Wnt-responsive Sp5-Luc reporter in SW480 colon carcinoma cells. Briefly: Wnt activity screening assay (Sp5-Luc reporter). Format: cell-based. The conditions noted are these: Homo sapiens. The text has this: The screening assay for Wnt activity is described as follows. Reporter cell lines can be generated by stably transducing cancer cell lines (e.g., colon cancer) or primary cells (e.g., IEC-6 intestinal cells) with a lentiviral construct that includes a Wnt-responsive promoter driving expression of the firefly luciferase gene.
SW480 colon carcinoma cells were transduced with a lentiviral vector expressing luciferase with a human Sp5 promoter consisting of a sequence of eight TCF/LEF binding sites. […] These stably transduced SW480 cells were expanded in cell culture and used for all further screening activities. […] For Sp5-Luc reporter gene assays, the cells were plated at 4,000 cells/well in 384-well plates with a DMEM medium containing 1% fetal bovine serum, and 1% Penicillin-Streptomycin and incubated for 36 to 48 hours at 37° C. and 5% CO2. Following incubation, 15 μL of BriteLite Plus luminescence reagent (Perkin Elmer) was added to each well of the 384-well assay plates. The plates were placed on an orbital shaker for 2 min and then luminescence was quantified using the Envision (Perkin Elmer) plate reader.

The subject of experiment [4] is SW480 colorectal cancer cells. Description: Gene expression qRT-PCR in SW480 cells. Conditions: Homo sapiens, SW480, 3 μM, 24 hours, relative to DMSO. Format: cell-based. How it is done:
SW480 colorectal cancer cells were plated at 1×10^4 cells per well into 96-well plates (Olympus). Compounds were diluted in cell culture media and added to the cells at a final concentration of 3 μM. Cells were treated with vehicle (DMSO) and compounds for 24 hours. N=3 biological replicates per conditions.
Following treatment, cells were lysed, and cDNA was generated using the Fastlane Cell cDNA Kit (Qiagen).
384-well PCR plates with pre-spotted primers for CLK1, CLK2, CLK3, DVL2, LRP5, SRSF1, SRSF3, SRSF4, SRSF5, TCF7, TCF7L2 were ordered from Bio-Rad. The generated cDNA, along with a SYBR Green qRT-PCR master mix (SsoAdvanced™ Universal SYBR® Green Supermix, Bio-Rad) was added to the PCR plates.
qRT-PCR was performed on the plates using a CFX384 Touch™ Real-Time PCR Detection System (Bio-Rad) with the manufacturer's recommended thermal cycling conditions.
Data from the qRT-PCR assay was normalized to the GAPDH and HPRT1 housekeeping genes and set gene expression fold change was set relative to vehicle-treated cells using the ΔΔCt analysis method.
A general note: Real-time PCR tracks product formation cycle by cycle.

Setting [5] is: recombinant CLK2 kinase, ATP 60 μM, read-out: EC50.
[6] abbreviates: SW480 Sp5-Luc reporter, 36 to 48 hours, read-out: EC50.
[7] abbreviates: read-out: gene expression fold change CLK1.
[8] abbreviates: read-out: gene expression fold change CLK2.
[9] abbreviates: read-out: gene expression fold change CLK3.
The mark [10] stands for this setting: read-out: gene expression fold change DVL2.
Setting [11] is: read-out: gene expression fold change LRP5.
The mark [12] stands for this setting: read-out: gene expression fold change SRSF1.
The mark [13] stands for this setting: read-out: gene expression fold change SRSF3.
The mark [14] stands for this setting: read-out: gene expression fold change SRSF4.
Where [15] appears, read: read-out: gene expression fold change SRSF5.
[16] abbreviates: read-out: gene expression fold change TCF7.
[17] abbreviates: read-out: gene expression fold change TCF7L2.

Where two headings read alike, the source gives them in different places.

Chain of CLK3 (P49761 whole entry): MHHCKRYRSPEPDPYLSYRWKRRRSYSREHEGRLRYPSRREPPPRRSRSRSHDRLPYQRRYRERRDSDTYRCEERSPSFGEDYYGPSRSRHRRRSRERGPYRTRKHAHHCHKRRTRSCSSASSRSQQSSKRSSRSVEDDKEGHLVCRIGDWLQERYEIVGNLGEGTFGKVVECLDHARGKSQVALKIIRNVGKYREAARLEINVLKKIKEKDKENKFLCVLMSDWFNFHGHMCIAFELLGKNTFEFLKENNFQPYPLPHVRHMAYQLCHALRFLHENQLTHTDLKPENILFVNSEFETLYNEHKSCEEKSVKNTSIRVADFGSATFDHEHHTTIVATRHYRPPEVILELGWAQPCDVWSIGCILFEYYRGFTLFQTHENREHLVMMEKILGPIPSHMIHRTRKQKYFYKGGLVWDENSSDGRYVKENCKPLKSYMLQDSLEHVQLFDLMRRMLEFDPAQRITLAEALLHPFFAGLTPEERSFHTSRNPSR
T1 sequence (P49760 whole entry): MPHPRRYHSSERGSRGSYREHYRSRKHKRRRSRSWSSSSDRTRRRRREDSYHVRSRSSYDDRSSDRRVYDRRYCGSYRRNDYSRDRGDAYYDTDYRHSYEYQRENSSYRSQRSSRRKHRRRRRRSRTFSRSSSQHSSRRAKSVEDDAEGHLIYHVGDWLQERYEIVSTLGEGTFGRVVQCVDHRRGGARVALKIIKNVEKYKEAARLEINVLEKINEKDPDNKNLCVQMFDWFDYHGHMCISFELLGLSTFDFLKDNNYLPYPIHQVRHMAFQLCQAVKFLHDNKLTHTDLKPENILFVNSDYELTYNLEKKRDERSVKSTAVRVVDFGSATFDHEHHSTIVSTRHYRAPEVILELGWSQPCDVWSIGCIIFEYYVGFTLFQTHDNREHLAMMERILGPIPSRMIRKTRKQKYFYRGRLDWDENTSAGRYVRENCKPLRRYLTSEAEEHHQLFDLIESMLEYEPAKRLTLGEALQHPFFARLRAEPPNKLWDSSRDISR

As for `CN1CCC(C(=O)Nc2c[nH]nc2-c2nc3c(-c4cccc(F)c4)cccc3[nH]2)CC1` [Compound 1], the figures for the half-maximal effective concentration (EC50) in experiment [1], in experiment [2] (setting [5]) and in experiment [3] (setting [6]) were 0.01 µM, 0.001 µM and 0.039 µM, respectively. Besides, the fold induction at 3 µM worked out at 0.02 in experiment [4] (setting [7]); 0.02 in experiment [4] (setting [8]); 0.01 in experiment [4] (setting [9]); 0.14 in experiment [4] (setting [10]); 0.18 in experiment [4] (setting [11]); 0.32 in experiment [4] (setting [12]). Further, the fold induction at 3 µM in experiment [4] (setting [13]) is 0.13; in experiment [4] (setting [14]), 0.03; in experiment [4] (setting [15]) it was 0.39; in experiment [4] (setting [16]), 0.44; in experiment [4] (setting [17]), 0.24.

Take `Cc1n[nH]c2ncc(-c3cncc(OC[C@@H](N)Cc4ccccc4)n3)cc12` [Compound 4]: the EC50 in experiment [1] is 1.28 µM; in experiment [2] (setting [5]) it was 0.002 µM; in experiment [3] (setting [6]) it was 0.525 µM. The fold induction at 3 µM is 0.43 in experiment [4] (setting [7]); 0.35 in experiment [4] (setting [8]); 0.74 in experiment [4] (setting [9]); 0.11 in experiment [4] (setting [10]); 0.06 in experiment [4] (setting [11]); 0.25 in experiment [4] (setting [12]). Further, the fold induction at 3 µM in experiment [4] (setting [13]) worked out at 0.05; in experiment [4] (setting [14]), 0.7; in experiment [4] (setting [15]), 0.27; in experiment [4] (setting [16]), 0.21; in experiment [4] (setting [17]), 0.13.

For `Cc1ncc(NC(=O)c2n[nH]c3ccc(-c4cnn(C5CCNCC5)c4)cc23)s1` [Compound 5], the figures for the EC50 in experiment [1], in experiment [2] (setting [5]) and in experiment [3] (setting [6]) were 0.027 µM, 0.0003 µM and 0.257 µM, respectively. Moreover, the fold induction at 3 µM in experiment [4] (setting [7]) was 0.15; in experiment [4] (setting [8]), 0.12; in experiment [4] (setting [9]) it was 0.55; in experiment [4] (setting [10]), 0.37; in experiment [4] (setting [11]) it was 0.43; in experiment [4] (setting [12]), 1.52. In addition, the fold induction at 3 µM in experiment [4] (setting [13]) stood at 0.46; in experiment [4] (setting [14]), 0.27; in experiment [4] (setting [15]), 0.6; in experiment [4] (setting [16]), 0.3; in experiment [4] (setting [17]) it was 0.24.

In the case of `CC(C)N1CCC(n2cc(C(=O)Nc3cc4cc(-c5cnn(C)c5)ccc4cn3)cn2)CC1` [Compound 11], the EC50 in experiment [1] is 0.005 µM; in experiment [2] (setting [5]), 0.001 µM; in experiment [3] (setting [6]), 0.013 µM. Moreover, the fold induction at 3 µM in experiment [4] (setting [7]) was found to be 0.02; in experiment [4] (setting [8]), 0.04; in experiment [4] (setting [9]), 0.09; in experiment [4] (setting [10]), 0.11; in experiment [4] (setting [11]), 0.09; in experiment [4] (setting [12]), 0.74. Further, the fold induction at 3 µM in experiment [4] (setting [13]) came to 0.17; in experiment [4] (setting [14]), 0.15; in experiment [4] (setting [15]), 0.24; in experiment [4] (setting [16]), 0.19; in experiment [4] (setting [17]), 0.17.

For `Nc1cncc(-c2ccc3cnc(NC(=O)c4ccc(OC5CCNCC5)cc4)cc3c2)c1` [Compound 20], the EC50 in experiment [1] came to 0.019 µM; in experiment [2] (setting [5]) it was 0.001 µM; in experiment [3] (setting [6]) it was 0.169 µM. For the same compound, the fold induction at 3 µM turned out to be 0.07 in experiment [4] (setting [7]); 0.08 in experiment [4] (setting [8]); 0.35 in experiment [4] (setting [9]); 0.42 in experiment [4] (setting [10]); 0.37 in experiment [4] (setting [11]); 1.56 in experiment [4] (setting [12]). Also, the fold induction at 3 µM in experiment [4] (setting [13]) was determined as 0.5; in experiment [4] (setting [14]) it was 0.33; in experiment [4] (setting [15]), 0.63; in experiment [4] (setting [16]), 0.47; in experiment [4] (setting [17]) it was 0.6.

With `O=C(Nc1cc2cc(-c3cncc(NC4CCNC[C@@H]4F)n3)ccc2cn1)C1CC1` (stereo partly drawn) [Compound 22], the EC50 came out at 0.018 µM in experiment [1], 0.002 µM in experiment [2] (setting [5]) and 0.014 µM in experiment [3] (setting [6]). Further, the fold induction at 3 µM is 0.04 in experiment [4] (setting [7]); 0.04 in experiment [4] (setting [8]); 0.04 in experiment [4] (setting [9]); 0.41 in experiment [4] (setting [10]); 0.21 in experiment [4] (setting [11]); 0.53 in experiment [4] (setting [12]). Also, the fold induction at 3 µM in experiment [4] (setting [13]) came to 0.18; in experiment [4] (setting [14]) it was 0.04; in experiment [4] (setting [15]), 0.36; in experiment [4] (setting [16]), 0.75; in experiment [4] (setting [17]), 0.68.

Consider `Cc1ccc([N+](=O)[O-])cc1S(=O)(=O)N(C)/N=C/c1cnc2ccc(Br)cn12` [Compound 26], for which the EC50 in experiment [1] stood at 0.015 µM; in experiment [2] it was 0.001 µM; in experiment [3] (SW480) it was 0.039 µM.

With `Cc1n[nH]c2ccc(-c3cncc(OC4CCNCC4(F)F)n3)cc12` (stereo not drawn) [Compound 28], the EC50 came to 0.313 µM in experiment [1], 0.003 µM in experiment [2] (setting [5]) and 0.369 µM in experiment [3] (setting [6]).

As to `Fc1cccc(-c2cncc3[nH]c(-c4n[nH]cc4/C=C/c4cccnc4)nc23)c1` [Compound 29], the EC50 is 0.062 µM in experiment [1], 0.005 µM in experiment [2] (setting [5]) and 0.014 µM in experiment [3] (setting [6]).

As to `CN1CCC(Oc2ccc(NC(=O)c3n[nH]c4ccc(-c5cncc(N)c5)cc34)cc2)CC1` [Compound 32], the EC50 in experiment [1] stood at 0.013 µM; in experiment [2] (setting [5]) it was 0.001 µM; in experiment [3] (setting [6]), 0.085 µM.

Consider `CN(C)Cc1cncc(-c2ccc3[nH]nc(-c4nc5c(-c6cccc(F)c6)cncc5[nH]4)c3c2)c1` [Compound 38], for which the EC50 in experiment [1] was found to be 0.007 µM; in experiment [2] (setting [5]), 0.001 µM; in experiment [3] (setting [6]) it was 0.013 µM.

Turning to `CC(C)CC(=O)Nc1cncc(-c2ccc3[nH]nc(-c4nc5c(-c6cc(F)cc(OCCN(C)C)c6)cncc5[nH]4)c3c2)c1` [Compound 39], the results for the EC50 in experiment [1], in experiment [2] (setting [5]) and in experiment [3] (setting [6]) were 0.01 µM, 0.004 µM and 0.199 µM, respectively.

For `CCC(=O)Nc1cncc(-c2ccc3[nH]nc(-c4nc5c(-c6cccnc6)cncc5[nH]4)c3c2)c1` [Compound 40], the EC50 in experiment [1] was 0.014 µM; in experiment [2] (setting [5]) it was 0.003 µM; in experiment [3] (setting [6]) it was 0.013 µM.

As for `CN(C)Cc1cncc(-c2ccc3[nH]nc(-c4nc5c(-c6cc(F)cc(CNS(C)(=O)=O)c6)ccnc5[nH]4)c3c2F)c1` [Compound 41], the EC50 in experiment [1] was determined as 0.018 µM; in experiment [2] (setting [5]) it was 0.002 µM; in experiment [3] (setting [6]), 0.773 µM.

With `c1cncc(-c2ccc3[nH]nc(-c4nc5ccncc5[nH]4)c3c2)c1` [Compound 43], the EC50 in experiment [1] came out at 0.04 µM; in experiment [2] (setting [5]), 0.004 µM; in experiment [3] (setting [6]), 0.133 µM.

In the case of `NC1CN(c2cncc(-c3cc4c(-c5nc6c(-c7cccc(F)c7)cccc6[nH]5)n[nH]c4cn3)n2)C1` [Compound 44], the EC50 in experiment [1] was determined as 0.108 µM; in experiment [2] (setting [5]), 0.018 µM; in experiment [3] (setting [6]), 0.079 µM.

One may read the EC50 as the concentration giving half of the maximal effect.
